According to patent US8846704B2, “Thiopyrimidine-based compounds and uses thereof” (YM Biosciences Austraila Pty Ltd, priority 2007, dated 2014):

Tests used:
CTLL2 = test: Cellular screening, CTLL2 cells, Alamar Blue; assay type: cell-based; details: Mus musculus, CTLL-2, read-out: CTLL2 IC50_nM
Method: (§1) Cell suspensions were prepared by harvesting cells from culture (the cells used in this test were in late log phase growth with high viability.) Cells were diluted in the appropriate growth medium, as described above, to 1.1× final concentration (from 50,000 cell/mL to 200,000 cell/mL, depending on cell line).
(§2) Compounds to be tested were added (10 μL, 10× final concentration) to a flat bottomed 96-well plate. The cellular suspension (90 μL per well) was then added, and the plate incubated for 40 hr at 37° C., 5% CO2. Alamar Blue 10 μL per well was added and the plates returned to the incubator for a further 4-6 hours. The plates were then read at 544 nm.

human JAK3 = biological target: T1, human JAK3 (Homo sapiens, UniProt P52333); test: Alphascreen tyrosine kinase enzyme assay, JAK3 kinase domain; assay type: biochemical; details: read-out: JAK3 IC50_nM
T1 construct: The kinase domain of human JAK3 was amplified; GST (N); made in house; host or cells: Sf9 insect cells (baculovirus)
T1 sequence (P52333 822-1111 limits assumed): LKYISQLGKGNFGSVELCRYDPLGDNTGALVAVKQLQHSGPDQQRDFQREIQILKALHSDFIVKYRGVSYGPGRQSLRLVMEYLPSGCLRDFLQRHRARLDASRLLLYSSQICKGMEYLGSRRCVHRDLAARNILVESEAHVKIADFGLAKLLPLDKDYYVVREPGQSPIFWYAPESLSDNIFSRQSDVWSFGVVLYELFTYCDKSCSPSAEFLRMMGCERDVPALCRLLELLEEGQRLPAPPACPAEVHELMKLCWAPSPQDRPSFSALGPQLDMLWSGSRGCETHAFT
Method: (§3) For screening purposes, compounds (in 100% DMSO) were warmed at 37 degrees for at least 20 minutes before use. A […] stock was initially made in assay buffer, where the final concentration of DMSO was 0.3%. The stocks were then diluted in 384 well Optiplates (Packard) where the final concentration of the compound was […].
The kinase domain of human JAK3 was amplified from U937mRNA using the polymerase chain reaction with the following primers: […]
The JAK3 PCR products were cloned into the pDest20 destination expression vector (Gibco). The JAK3 plasmid was then transformed into competent DH10Bac cells (Gibco), and the recombinant baculovirus was prepared via Sf9 insect cell transfection.
(§4) Baculovirus preparations from each of the constructs were infected into either one or five liters of Sf9 cells (Invitrogen) grown in SF-900 medium (Invitrogen) to a cell density of approximately 1-2×10^6 cells/ml. Cells were infected with virus at a MOI of 0.8-3.0. Cells were harvested and lysed. Tyrosine kinase domains were purified by affinity chromatography on a glutathione-agarose column (Scientifix Pty. Ltd. catalog #: GSH-200).
(§5) Kinase assays were performed in 384 well Optiplates (Packard) using an Alphascreen Protein Tyrosine Kinase PY100 detection kit The compounds were pre-incubated with affinity purified PTK domain in the presence of phosphotyrosine assay buffer (10 mM HEPES, pH 7.5, 100 mM MgCl2, 25 mM NaCl, […] and 0.1% Tween 20) for 20 minutes. The compounds were then incubated with substrate in the presence of ATP. The substrate used was susbtrate-1 with the sequence biotin-EGPWLEEEEEAYGWMDF-NH2 [SEQ. ID. NO. 13] (final concentration […]). For HCK 80 μm ATP was used and incubated for 60 minutes. Alphascreen phosphotyrosine acceptor beads followed by streptavidin donor beads at a concentration of 1/100 in stop buffer were added to each well under subdued light and incubated for 2-3 hours., The Alphascreen plates were read on a Packard Fusion Alpha instrument.

human JAK2 = biological target: T2, human JAK2 (Homo sapiens, UniProt O60674); test: Alphascreen tyrosine kinase enzyme assay, JAK2 kinase domain; assay type: biochemical; details: read-out: JAK2 IC50_nM
T2 construct: The kinase domain of human JAK2 was amplified; GST (N); made in house; host or cells: Sf9 insect cells (baculovirus)
T2 sequence (O60674 849-1124 limits assumed): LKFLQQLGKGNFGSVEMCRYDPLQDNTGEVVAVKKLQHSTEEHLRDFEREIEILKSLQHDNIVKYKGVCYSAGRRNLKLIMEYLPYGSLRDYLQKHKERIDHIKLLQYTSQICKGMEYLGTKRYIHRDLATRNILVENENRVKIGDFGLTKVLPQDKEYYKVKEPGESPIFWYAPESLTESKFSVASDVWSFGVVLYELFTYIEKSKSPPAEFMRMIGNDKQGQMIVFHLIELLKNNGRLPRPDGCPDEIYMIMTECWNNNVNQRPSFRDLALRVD
Method: as §3
The kinase domain of human JAK2 was amplified from U937mRNA using the polymerase chain reaction with the following primers: […]
The JAK2 PCR products were cloned into the pDest20 destination vector (Gibco). The JAK2 plasmid was then transformed into competent DH10Bac cells (Gibco), and the recombinant baculovirus was prepared via Sf9 insect cell transfection.
as §4, §5

[1] = biological target: T3, BaF3 TELJAK2 cells (BafT_J2) (Homo sapiens, UniProt O60674); test: Cellular screening, BaF3 TEL:JAK2 cells, Alamar Blue; assay type: cell-based; details: 40 hr, read-out: BafT_J2 IC50_nM
T3 construct: fused on or other part: TEL (ETV6) N-terminal part, coding nucleotides 1-487, serves as the oligomerising partner; It is fused through a Sal I site to the JAK2 kinase domain and expressed from pTRE2 in BaF3 cells bearing pTET-off; P41212 (Transcription factor ETV6)
T3 sequence (O60674 whole entry, change not shown, the tested form may be a part): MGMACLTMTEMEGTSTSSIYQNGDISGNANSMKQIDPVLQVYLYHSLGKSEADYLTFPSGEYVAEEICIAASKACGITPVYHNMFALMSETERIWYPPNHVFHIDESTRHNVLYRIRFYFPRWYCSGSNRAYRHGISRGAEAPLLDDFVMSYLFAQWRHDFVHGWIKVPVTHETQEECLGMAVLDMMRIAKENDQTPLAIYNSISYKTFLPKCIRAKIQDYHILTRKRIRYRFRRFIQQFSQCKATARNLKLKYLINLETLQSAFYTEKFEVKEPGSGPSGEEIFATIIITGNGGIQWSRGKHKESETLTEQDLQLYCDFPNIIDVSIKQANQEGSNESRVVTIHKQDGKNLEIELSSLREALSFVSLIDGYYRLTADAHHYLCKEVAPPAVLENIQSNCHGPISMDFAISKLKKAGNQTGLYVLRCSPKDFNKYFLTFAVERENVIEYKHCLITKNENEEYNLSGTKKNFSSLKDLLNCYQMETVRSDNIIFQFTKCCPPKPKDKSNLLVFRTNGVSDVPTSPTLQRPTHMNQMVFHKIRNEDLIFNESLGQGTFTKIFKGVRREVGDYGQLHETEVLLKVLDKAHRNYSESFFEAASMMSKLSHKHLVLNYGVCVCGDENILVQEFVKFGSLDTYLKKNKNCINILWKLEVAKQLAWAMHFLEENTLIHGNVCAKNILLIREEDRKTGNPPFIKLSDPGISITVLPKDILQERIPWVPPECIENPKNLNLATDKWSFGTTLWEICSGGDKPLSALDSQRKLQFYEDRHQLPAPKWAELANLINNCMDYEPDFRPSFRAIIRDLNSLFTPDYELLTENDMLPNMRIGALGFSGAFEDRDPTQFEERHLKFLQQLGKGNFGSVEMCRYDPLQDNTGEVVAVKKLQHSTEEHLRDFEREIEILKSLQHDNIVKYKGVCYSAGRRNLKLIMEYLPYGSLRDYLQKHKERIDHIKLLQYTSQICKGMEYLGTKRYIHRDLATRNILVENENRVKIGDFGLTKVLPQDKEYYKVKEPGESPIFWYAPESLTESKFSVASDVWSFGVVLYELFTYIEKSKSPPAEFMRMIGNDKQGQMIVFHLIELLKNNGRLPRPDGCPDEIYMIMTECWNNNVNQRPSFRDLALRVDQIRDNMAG
Method: (§6) For screening purposes, compounds were diluted in 96 well plates at a concentration of 20 μM. Plates were warmed at 37° C. for 30 minutes before the assay was performed.
The coding region encompassing nucleotides 1-487 of TEL was amplified by PCR using the oligonucleotides STEL (5′-GGAGGATCCTGATCTCTCTCGCTGTGAGAC-3′) [SEQ ID NO 14] and 3TEL (5′-AGGC GTCGACTTCTTCTTCATGGTTCTG-3′) [SEQ ID NO 15] and U937 mRNA as a template. A […] restriction site was incorporated into the STEL primer, and a Sal I restriction site was incorporated into the 3TEL primer. The regions encompassing the kinase domain of JAK2 (nucleotides 2994-3914; JAK2F 5′-ACGC GTCGACGGTGCCTTTGAAGACCGGGAT-3′ [SEQ ID NO 16]; JAK2R 5′-ATAGTTTAGCGGCCGCTCAGAATGAAGGTCATTT-3′) [SEQ ID NO 17] and JAK3 (nucleotides 2520-3469; JAK3F 5′-GAAGTCGACTATGCCTGCCAAGACCCCACGATCTT-3′) [SEQ ID NO 18] were generated by PCR using Taq DNA polymerase (Gibco/BRL) and […] as a template. A Sal I restriction site was incorporated into the forward primer of JAK2 and JAK3, a Not I site was incorporated into the JAK2 reverse primer and a Xba I site was added to the reverse primer of JAK3.
A TEL/Jak2 fusion was generated by digestion of the TELPCR product with BamH I/Sal I restriction enzymes, digestion of the JAK2 PCR product with Sal I/Not I restriction enzymes, followed by ligation and subcloning of the ligation product into the mammalian expression Vector pTRE 2 (Clontech), which was prepared by digestion with BamH I-Not I restriction enzymes, to give the TEL/Jak2 fusion plasmid pTELJAK2.
(§7) The growth factor dependant myelomonocytic cell line BaF3 bearing the pTET-off plasmid (Clontech) was transfected with either pTELJAK2 or pTELJAK3, and the transfected cells were selected for growth-factor independent cell growth. The BaF3 wild-type cells were cultured in DMEM containing 10% FCS, 10% WEHI 3B conditioned medium. The BaF3 TELJAK cells ([…]) were cultured in DMEM 10% Tet-System Approved FBS (without WEHI 3B conditioned medium).
as §1, §2

BaF3 wild-type cells = test: Cellular screening, BaF3 wild-type cells, Alamar Blue; assay type: cell-based; details: Mus musculus, 40 hr, read-out: BAF3wt IC50_nM
Method: as §6, §7, §1, §2

| Structure (SMILES) | IC50 (CTLL2) [nM] | IC50 (human JAK3) [nM] | IC50 (human JAK2) [nM] | GI50 [1] [nM] | IC50 (BaF3 wild-type cells) [nM] |
| --- | --- | --- | --- | --- | --- |
| Cc1cnc(Nc2ccc(N3CCN(C)CC3)cc2)nc1Sc1ccc(N)cc1 [Compound 244, 4-(4-aophenylthio)-5-methyl-N-(4-(4-methylpiperazin-1-yl)phenyl)pyrimidin-2-ae] | < 5000 | < 100 | < 500 | < 5000 | < 5000 |
| C=CC(=O)NCc1ccc(Sc2ccnc(Nc3ccc(N4CCOCC4)cc3)n2)cc1 [Compound 111, N-(4-(2-(4-morpholinophenylamino)pyrimidin-4-ylthio)benzyl)acrylamide] | < 5000 | < 100 | > 1000 | < 20000 | < 20000 |
| Cc1cnc(Nc2ccc(N3CCOCC3)cc2)nc1Sc1ccc(N)cc1Cl [Compound 251, 4-(4-ao-2-chlorophenylthio)-5-methyl-N-(4-morpholinophenyl)pyrimidin-2-ae] | > 20000 | < 100 | > 1000 | > 20000 | > 20000 |
| N#CCNCc1cccc(Sc2ccnc(Nc3ccc(N4CCOCC4)cc3)n2)c1 [Compound 68, 2-(3-(2-(4-morpholinophenylao)pyrimidin-4-ylthio)benzylao)acetonitrile] | > 20000 | < 500 | < 100 | < 20000 | > 20000 |
| C=CC(=O)Nc1ccc(Sc2nc(Nc3ccc(N4CCOCC4)c(OC)c3)ncc2C)cc1 [Compound 248, N-(4-(2-(3-methoxy-4-morpholinophenylao)-5-methylpyrimidin-4-ylthio)phenyl)acrylamide] | < 1000 | < 100 | > 1000 | < 20000 | < 5000 |
| Nc1ccc(Sc2nc(Nc3cccc(N4CCOCC4)c3)ncc2I)cc1 [Compound 264, 4-(4-aophenylthio)-5-iodo-N-(3-morpholinophenyl)pyrimidin-2-ae] | < 5000 | < 500 | > 1000 | < 5000 | < 5000 |
| Cc1cnc(Nc2cccc(N3CCN(C)CC3)c2)nc1Sc1ccc(N)cc1 [Compound 245, 4-(4-aophenylthio)-5-methyl-N-(3-(4-methylpiperazin-1-yl)phenyl)pyrimidin-2-ae] | < 5000 | < 500 | < 500 | < 1000 | < 1000 |
| C=CC(=O)Nc1ccc(Sc2nc(Nc3ccc(OC)c(OC)c3)ncc2C)cc1 [Compound 241, N-(4-(2-(3,4-dimethoxyphenylao)-5-methylpyrimidin-4-ylthio)phenyl)acrylamide] | < 1000 | < 100 | > 1000 | < 5000 | < 20000 |
| Nc1ccc(Sc2ccnc(Nc3ccc(N4CCOCC4)cc3)n2)cc1 [Compound 27, 4-(4-aophenylthio)-N-(4-morpholinophenyl)pyrimidin-2-ae] | < 5000 | < 1000 | < 500 | > 20000 | < 20000 |
| COc1ccc(Nc2ncc(C)c(Sc3ccc(N)cc3)n2)cc1OC [Compound 240, 4-(4-aophenylthio)-N-(3,4-dimethoxyphenyl)-5-methylpyrimidin-2-ae] | < 5000 | < 500 | > 1000 | < 5000 | < 1000 |
| NCc1cccc(Sc2ccnc(Nc3ccc(N4CCOCC4)cc3)n2)c1 [Compound 75, 4-(3-(aomethyl)phenylthio)-N-(4-morpholinophenyl)pyrimidin-2-ae] | < 20000 | < 500 | < 1000 | < 20000 | < 20000 |
| C=CC(=O)Nc1ccc(Sc2ccnc(Nc3ccc(N4CCN(C)CC4)cc3)n2)cc1 [Compound 238, N-(4-(2-(4-(4-methylpiperazin-1-yl)phenylao)pyrimidin-4-ylthio)phenyl)acrylamide] |  | < 100 | > 1000 | < 5000 |  |
| N#CCC(=O)Nc1cccc(Sc2ccnc(Nc3ccc(N4CCOCC4)cc3)n2)c1 [Compound 24, N-(3-(2-(4-morpholinophenylamino)pyrimidin-4-ylthio)phenyl)-2-cyanoacetamide] | < 20000 |  | < 500 | < 20000 | < 20000 |
| C=CC(=O)Nc1ccc(Sc2nc(Nc3cccc(OC)c3)ncc2C)cc1 [Compound 235, N-(4-(2-(3-methoxyphenylao)-5-methylpyrimidin-4-ylthio)phenyl)acrylamide] |  | < 100 | > 1000 | < 20000 |  |
| C=CC(=O)Nc1ccc(Sc2nc(Nc3cccc(N4CCOCC4)c3)ncc2I)cc1 [Compound 269, N-(4-(5-iodo-2-(3-morpholinophenylao)pyrimidin-4-ylthio)phenyl)acrylamide] |  | < 100 | > 1000 | < 20000 |  |
| C=CC(=O)Nc1ccc(Sc2ccnc(Nc3cccc(CO)c3)n2)cc1 [Compound 278, N-(4-(2-(3-(hydroxymethyl)phenylao)pyrimidin-4-ylthio)phenyl)acrylamide] |  | < 100 | > 1000 | < 5000 |  |
| CC#CC(=O)Nc1cccc(Sc2ccnc(Nc3cccc(N4CCOCC4)c3)n2)c1 [Compound 232, N-(3-(2-(3-morpholinophenylao)pyrimidin-4-ylthio)phenyl)but-2-ynamide] |  | < 100 | > 1000 | < 20000 |  |
| C=CC(=O)Nc1ccc(Sc2nc(Nc3ccc(C4CCN(C)CC4)cc3)ncc2C)cc1 [Compound 246, N-(4-(5-methyl-2-(4-(1-methylpiperidin-4-yl)phenylao)pyrimidin-4-ylthio)phenyl)acrylamide] |  | < 100 | > 1000 | < 5000 |  |
